Experimental data published in ChEMBL document CHEMBL1201862, “PubChem BioAssay data set” (2004).
Structures can show the parent of a compound that is named as a salt. Activity calls are given as the source filed them.

Tests used:
[1] = molecular target: T1, Corticotropin-releasing factor receptor 2/Corticotropin-releasing factor-binding protein (Homo sapiens, UniProt P24387+Q13324); assay: Dose Response confirmation of uHTS hits for small molecule antagonists of the CRF-binding protein and CRF-R2 receptor complex.; assay type: functional; conditions: read-out: IC50_Mean
T1 sequence (Q13324 whole entry): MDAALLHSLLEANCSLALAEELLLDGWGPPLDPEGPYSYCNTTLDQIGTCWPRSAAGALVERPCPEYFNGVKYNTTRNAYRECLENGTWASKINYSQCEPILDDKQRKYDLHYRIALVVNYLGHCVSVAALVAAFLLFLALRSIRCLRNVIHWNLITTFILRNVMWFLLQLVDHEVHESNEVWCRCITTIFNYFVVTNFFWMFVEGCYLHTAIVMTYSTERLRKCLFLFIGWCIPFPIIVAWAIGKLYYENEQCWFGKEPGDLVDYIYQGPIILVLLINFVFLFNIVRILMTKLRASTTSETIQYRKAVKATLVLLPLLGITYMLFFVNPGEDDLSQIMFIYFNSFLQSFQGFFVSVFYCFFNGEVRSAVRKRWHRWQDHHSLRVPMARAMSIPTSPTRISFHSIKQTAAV
T1 sequence (P24387 whole entry): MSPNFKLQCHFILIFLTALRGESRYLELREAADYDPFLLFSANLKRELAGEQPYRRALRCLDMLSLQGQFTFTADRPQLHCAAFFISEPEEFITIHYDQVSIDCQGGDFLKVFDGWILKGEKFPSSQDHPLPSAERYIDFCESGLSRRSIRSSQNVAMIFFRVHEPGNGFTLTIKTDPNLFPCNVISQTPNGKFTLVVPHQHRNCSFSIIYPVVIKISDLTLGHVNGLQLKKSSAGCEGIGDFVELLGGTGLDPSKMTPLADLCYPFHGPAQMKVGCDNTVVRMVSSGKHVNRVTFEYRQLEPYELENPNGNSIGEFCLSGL

[2] = molecular target: T1, Corticotropin-releasing factor receptor 2/Corticotropin-releasing factor-binding protein; assay: activators of CRF receptor 2 with binding protein – uHTS hits, confirmation (AID 602473); assay type: functional; conditions: read-out: EC50_Mean
Genome polyprotein = Genome polyprotein (dengue virus type 2, UniProt P29990); assay: flavivirus cap methylation enzyme inhibition – biochemical, confirmation dose response, primary screen (AID 588689); assay type: functional
[3] = molecular target: T2, Polyadenylate-binding protein 1 (Homo sapiens, UniProt P11940); assay: MLLE binding blockers, Cy5 peptide tracer – biochemical, fluorescence polarization, Cy5-PAM2 peptide, secondary, miRNA deadenylation inhibitor project, dose response (AID 602260); assay type: functional; conditions: read-out: IC50_Mean
[4] = molecular target: T2, Polyadenylate-binding protein 1; assay: MLLE domain peptide-binding blockers, IC50 – biochemical, fluorescence polarization, FITC-PAM2 peptide, dose response (AID 602259); assay type: functional; conditions: read-out: IC50_Mean
[5] = viability of uninfected HEp-2 cells – cell-based, HTS, cytotoxicity control for RSV inhibitor project, dose response (AID 2410); assay type: functional; conditions: human respiratory syncytial virus
[6] = molecular target: FAD-linked sulfhydryl oxidase ALR (Homo sapiens, UniProt P55789); assay: ALR-catalysed DTT oxidation blockers – biochemical, H2O2 detection, luminescence, cherry-pick, dose response (AID 493248)
[7] = test system: Streptococcus sp. 'group A'; assay: Streptococcus pyogenes SK(-)GAS viability under kanamycin – luminescence, BacTiterGlo, confirmation, counter-screen for streptokinase expression inhibitor project, dose response (AID 1900); assay type: functional, organism-based
Streptokinase A = molecular target: T3, Streptokinase A (Streptococcus pyogenes serotype M1, UniProt P10520); assay: viability-normalized secreted streptokinase activity reduction – plasminogen activation absorbance, OD405, dose response (AID 1914); assay type: functional, Streptococcus pyogenes M1 GAS;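 further: secreted streptokinase activity via plasminogen activation per viability signal from cell pellet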
T3 sequence (P10520 whole entry): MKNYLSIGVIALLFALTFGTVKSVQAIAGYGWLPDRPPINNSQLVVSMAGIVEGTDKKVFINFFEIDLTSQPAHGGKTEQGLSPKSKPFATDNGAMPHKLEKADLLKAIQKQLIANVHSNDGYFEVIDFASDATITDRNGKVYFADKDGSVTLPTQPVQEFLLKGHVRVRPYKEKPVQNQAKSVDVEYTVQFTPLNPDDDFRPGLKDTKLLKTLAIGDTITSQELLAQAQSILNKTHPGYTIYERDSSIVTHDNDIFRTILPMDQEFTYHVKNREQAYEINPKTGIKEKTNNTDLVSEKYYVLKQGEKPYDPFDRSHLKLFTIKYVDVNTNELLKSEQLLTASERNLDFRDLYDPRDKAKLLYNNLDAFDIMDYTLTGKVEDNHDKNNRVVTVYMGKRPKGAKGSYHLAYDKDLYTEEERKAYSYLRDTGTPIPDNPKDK

Streptococcus = assay: GAS UMAA2166 growth inhibition – luminescence, BacTiterGlo, counter-screen for streptokinase expression inhibitor project, dose response (AID 1915); assay type: functional, organism-based;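 further: potency for reduction of bacterial viability or growth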
[8] = NIH-3T3 fibroblast cytotoxicity, dose response, cytotoxicity control, cell-based, fluorescence, Alamar Blue, secondary assay (AID 2327); assay type: functional;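 further: NIH-3T3 mouse fibroblasts cultured with fluconazole at 8 µg/mL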
[9] = fluconazole-exposed Candida albicans growth modulators – fluorescence, retest, confirmation (AID 2467); assay type: functional, cell-based
[10] = molecular target: T4, Replicative DNA helicase DnaB (Mycobacterium tuberculosis, UniProt P9WMR3); assay: DnaB intein splicing inhibitors, dose response, biochemical, cell-free fluorescence (AID 449749); assay type: functional
T4 sequence (P9WMR3 whole entry): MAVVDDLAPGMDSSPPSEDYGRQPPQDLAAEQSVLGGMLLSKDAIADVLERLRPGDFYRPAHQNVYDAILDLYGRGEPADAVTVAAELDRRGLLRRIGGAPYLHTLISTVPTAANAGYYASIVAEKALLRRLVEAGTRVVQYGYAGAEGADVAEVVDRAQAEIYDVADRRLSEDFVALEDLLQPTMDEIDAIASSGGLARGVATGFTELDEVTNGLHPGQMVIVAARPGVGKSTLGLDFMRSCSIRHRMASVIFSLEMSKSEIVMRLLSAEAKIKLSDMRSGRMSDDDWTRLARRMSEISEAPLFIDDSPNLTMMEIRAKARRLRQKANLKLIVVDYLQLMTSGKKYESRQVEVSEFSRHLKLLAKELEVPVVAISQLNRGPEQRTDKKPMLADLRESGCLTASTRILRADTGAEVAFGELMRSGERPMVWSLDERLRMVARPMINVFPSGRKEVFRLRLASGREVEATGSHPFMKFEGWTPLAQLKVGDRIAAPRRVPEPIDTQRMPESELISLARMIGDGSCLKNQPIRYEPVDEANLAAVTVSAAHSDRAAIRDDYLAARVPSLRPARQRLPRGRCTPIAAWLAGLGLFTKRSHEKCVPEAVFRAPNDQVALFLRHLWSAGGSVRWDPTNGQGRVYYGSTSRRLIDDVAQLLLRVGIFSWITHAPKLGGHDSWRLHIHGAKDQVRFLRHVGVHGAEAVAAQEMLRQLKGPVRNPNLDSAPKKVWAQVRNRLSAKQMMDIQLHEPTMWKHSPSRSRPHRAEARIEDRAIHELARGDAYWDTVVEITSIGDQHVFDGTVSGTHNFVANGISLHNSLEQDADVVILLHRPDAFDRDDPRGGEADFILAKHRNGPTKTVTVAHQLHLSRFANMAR

Protein RecA = molecular target: T5, Protein RecA (Mycobacterium tuberculosis, UniProt P9WHJ3); assay: Fluorescence Cell-Free Homogeneous Dose Retest to Identify Inhibitors of RecA-Intein Splicing Activity. [Related pubchem assays (depositor defined):AID2097, AID2223, AID489010, AID492950]; assay type: functional
T5 sequence (P9WHJ3 whole entry): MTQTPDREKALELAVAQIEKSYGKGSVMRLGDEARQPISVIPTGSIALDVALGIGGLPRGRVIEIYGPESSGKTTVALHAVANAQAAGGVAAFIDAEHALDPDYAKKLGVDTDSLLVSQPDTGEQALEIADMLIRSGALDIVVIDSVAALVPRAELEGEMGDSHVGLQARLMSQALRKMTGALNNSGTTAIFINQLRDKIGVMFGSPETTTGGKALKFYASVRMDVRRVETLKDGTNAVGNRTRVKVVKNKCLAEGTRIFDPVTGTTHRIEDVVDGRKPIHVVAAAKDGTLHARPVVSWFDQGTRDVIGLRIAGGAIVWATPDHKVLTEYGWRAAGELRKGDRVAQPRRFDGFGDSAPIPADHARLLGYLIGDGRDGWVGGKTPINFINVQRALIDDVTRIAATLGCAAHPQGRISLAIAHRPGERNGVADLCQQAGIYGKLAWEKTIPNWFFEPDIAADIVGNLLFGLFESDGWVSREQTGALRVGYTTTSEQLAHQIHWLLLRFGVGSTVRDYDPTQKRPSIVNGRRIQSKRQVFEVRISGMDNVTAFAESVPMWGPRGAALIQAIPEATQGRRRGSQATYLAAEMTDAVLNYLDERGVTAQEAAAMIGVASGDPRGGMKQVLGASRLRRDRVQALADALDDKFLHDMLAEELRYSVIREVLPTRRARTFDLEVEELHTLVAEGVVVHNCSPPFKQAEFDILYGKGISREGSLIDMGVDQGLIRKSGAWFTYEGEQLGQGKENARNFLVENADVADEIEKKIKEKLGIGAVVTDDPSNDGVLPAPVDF

[11] = Luminescence Cell-Based Dose Retest to Confirm Inhibitors of Cancer Stem Cells. [Related pubchem assays (depositor defined):AID2717, AID2721]; assay type: functional; conditions: Homo sapiens

Chain of FAD-linked sulfhydryl oxidase ALR (P55789 whole entry): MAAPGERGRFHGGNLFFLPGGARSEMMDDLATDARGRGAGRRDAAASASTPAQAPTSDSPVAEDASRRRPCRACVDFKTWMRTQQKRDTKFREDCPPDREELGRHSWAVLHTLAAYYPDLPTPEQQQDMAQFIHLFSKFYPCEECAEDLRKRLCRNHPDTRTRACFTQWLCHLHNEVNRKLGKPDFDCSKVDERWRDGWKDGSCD
T2 sequence (P11940 whole entry, the tested form may be a part): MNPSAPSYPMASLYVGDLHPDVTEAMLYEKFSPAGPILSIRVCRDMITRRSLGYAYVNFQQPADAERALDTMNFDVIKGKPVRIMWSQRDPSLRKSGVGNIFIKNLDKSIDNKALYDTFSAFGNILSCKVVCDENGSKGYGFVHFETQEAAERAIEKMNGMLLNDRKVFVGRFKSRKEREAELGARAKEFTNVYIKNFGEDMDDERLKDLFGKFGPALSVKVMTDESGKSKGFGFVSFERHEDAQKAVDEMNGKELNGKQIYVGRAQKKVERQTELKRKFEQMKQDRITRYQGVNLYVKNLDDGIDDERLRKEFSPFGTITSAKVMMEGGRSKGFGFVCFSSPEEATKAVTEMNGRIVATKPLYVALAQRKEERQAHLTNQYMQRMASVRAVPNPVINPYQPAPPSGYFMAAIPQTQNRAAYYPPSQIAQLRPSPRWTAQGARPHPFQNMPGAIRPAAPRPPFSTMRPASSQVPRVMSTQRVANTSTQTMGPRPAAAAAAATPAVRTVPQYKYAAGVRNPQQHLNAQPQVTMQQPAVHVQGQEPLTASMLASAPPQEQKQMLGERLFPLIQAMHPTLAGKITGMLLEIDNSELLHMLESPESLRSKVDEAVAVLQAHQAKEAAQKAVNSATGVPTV
Chain of Genome polyprotein (P29990 2492-3391 limits assumed): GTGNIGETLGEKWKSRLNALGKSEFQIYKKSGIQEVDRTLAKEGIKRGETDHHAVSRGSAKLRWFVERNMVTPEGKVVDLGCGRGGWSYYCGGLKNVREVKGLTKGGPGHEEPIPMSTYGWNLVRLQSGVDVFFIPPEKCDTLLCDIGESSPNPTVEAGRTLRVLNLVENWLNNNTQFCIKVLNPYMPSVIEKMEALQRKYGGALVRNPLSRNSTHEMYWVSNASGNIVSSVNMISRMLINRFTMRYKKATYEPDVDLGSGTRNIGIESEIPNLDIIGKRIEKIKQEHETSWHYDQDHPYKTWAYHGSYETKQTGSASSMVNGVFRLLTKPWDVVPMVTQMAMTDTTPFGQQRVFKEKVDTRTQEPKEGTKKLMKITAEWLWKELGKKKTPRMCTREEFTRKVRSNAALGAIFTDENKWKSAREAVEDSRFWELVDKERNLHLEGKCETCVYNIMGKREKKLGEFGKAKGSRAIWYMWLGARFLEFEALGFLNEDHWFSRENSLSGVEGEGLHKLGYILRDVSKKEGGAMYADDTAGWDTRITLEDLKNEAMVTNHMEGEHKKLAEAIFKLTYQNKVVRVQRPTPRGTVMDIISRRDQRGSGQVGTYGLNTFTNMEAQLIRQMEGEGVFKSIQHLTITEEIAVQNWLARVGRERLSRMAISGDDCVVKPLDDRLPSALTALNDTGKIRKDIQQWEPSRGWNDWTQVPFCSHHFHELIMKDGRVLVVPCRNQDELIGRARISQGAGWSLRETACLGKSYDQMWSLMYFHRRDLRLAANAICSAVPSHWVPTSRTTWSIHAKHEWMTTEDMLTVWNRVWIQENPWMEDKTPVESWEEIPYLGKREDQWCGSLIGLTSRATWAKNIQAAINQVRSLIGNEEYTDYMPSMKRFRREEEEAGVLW

For CCOC(=O)c1c(-c2cccc(Cl)c2)n[nH]c1N1C(=O)Nc2ccccc2N1O, the IC50 [1] was > 47.1 µM (inactive) and the EC50 [2] was > 53 µM (inactive).

In the case of CCOc1ccc(S(=O)(=O)Nc2cccnc2)cc1, the IC50 [1] is reported as > 47.1 µM (inactive) and the EC50 [2] is reported as > 53 µM (inactive).

With Cn1nc([N+](=O)[O-])c(C(C#N)c2nc3ccccc3n2C)c(Cl)c1=O (stereo unspecified) the IC50 (Genome polyprotein) was 16.7 µM (active), the IC50 [3] was > 66 µM (inactive) and the IC50 [4] was 30.8 µM (inactive).

With CN(C)c1c([N+](=O)[O-])cc2[nH]c(O)nc2c1[N+](=O)[O-] the CC50 [5] was 24.7 µM (active).

For Cn1ccc(/C=N/NC2=NC(=O)CS2)n1, the CC50 [5] was 24.5 µM (active).

In the case of Cc1cccc(/C=N/n2c(S)nnc2-c2ccccn2)c1, the AC50 [6] is reported as 67.5 µM (active).

In the case of CCc1nc(SCC(=O)Nc2ccccc2OC)c2c(C)c(C)sc2n1, the CC50 [5] is reported as 26 µM (active), the EC50 [7] is reported as 8.64 µM (active) and the EC50 (Streptokinase A) is reported as > 150 µM (not active). For the same molecule, the EC50 (Streptococcus) was > 150 µM (not active).

In the case of COc1ccc(CC(=O)ONC(=N)c2cccc([N+](=O)[O-])c2)cc1, the IC50 [1] is reported as > 47.1 µM (inactive) and the EC50 [2] is reported as > 53 µM (inactive).

For O=S(=O)(NCC(c1ccco1)N1CCc2ccccc21)c1ccccc1 (stereo unspecified), the AC50 [6] was 2.49 µM (active).

For N#C/C(=C(/O)COc1ccc(Cl)cc1)c1nc2ccccc2s1, the EC50 [8] was 93.5 µM (active), the EC50 [9] was 0.191 µM (active) and the IC50 [1] was < 0.368 µM (active). For the same molecule, the EC50 [2] was > 53 µM (inactive).

With CC1=NN(c2ccccc2)C(=O)/C1=C/c1ccc(Cl)cc1 the AC50 [10] was 2.15 µM (active), the EC50 (Protein RecA) was 1.35 µM (active) and the IC50 (Genome polyprotein) was 38.6 µM (active).

With COc1ccc2sc(-c3ccc(SC)cc3)c(C#CCO)c2c1 the AC50 [11] was 9.22 µM (active).

For COc1ccnc(N2CCN(c3ccccc3)CC2)c1C#N, the EC50 [8] was > 160 µM (inactive), the EC50 [9] was > 38 µM (not active) and the AC50 [6] was 1.27 µM (active).

For C=CCn1c(S)nnc1Cc1cccc2ccccc12, the AC50 [6] was 23.3 µM (active).

With COc1c2c(c(OC)c3ccccc13)[C@@]1(OC2)O[C@H](CCO)C[C@H](O)[C@H]1O the IC50 [1] was > 47.1 µM (inactive) and the EC50 [2] was > 53 µM (inactive).

With CC(C)c1ccc(/C=C2\C(=N)N3N=C(CC(=O)N4CCCCC4)SC3=NC2=O)cc1 the AC50 [6] was 5.61 µM (active).

For Cc1ccc(S(=O)(=O)Nc2cc(C(=O)Nc3cc(C)cc(C)c3)ccc2Cl)cc1, the IC50 [1] was > 47.1 µM (inactive) and the EC50 [2] was > 53 µM (inactive).

With Nc1cc(=O)[nH]n1C1CCN(c2ccccc2)CC1 the AC50 [6] was 2.61 µM (active).

With CCOC(=O)Cn1c2c(c(-c3ccccc3OC)cc1=O)CCCC2 the IC50 [1] was > 47.1 µM (inactive) and the EC50 [2] was > 53 µM (inactive).

With Cc1occc1C(=O)N/N=C/C(Br)=C\c1ccccc1 the CC50 [5] was 22.4 µM (active).

In the case of NC(=O)c1ccc2nc(-c3ccccc3)c(-c3ccccc3)nc2c1, the IC50 [1] is reported as > 47.1 µM (inactive) and the EC50 [2] is reported as > 53 µM (inactive).

For CCCCNC(=O)c1cn(CC)c2ccc(S(=O)(=O)N3CCCCCC3)cc2c1=O, the IC50 [1] was > 47.1 µM (inactive) and the EC50 [2] was > 53 µM (inactive).

With CCOC(=O)c1c(C)[nH]c(C(=O)COC(=O)c2ccccc2NC(=O)c2ccco2)c1C the CC50 [5] was > 50 µM (active).

For NC(=O)c1ccc(NC(=O)COC(=O)c2c3c(nc4ccccc24)/C(=C\c2cccs2)CCC3)cc1, the AC50 [11] was 10.4 µM (active).

With C/C(=N\NC(=O)C1CC1)c1ccc(OC(F)F)cc1OC(F)F the CC50 [5] was 30.8 µM (active).

In the case of O=c1c2c(O)cc(-c3ccccc3)nc2[nH]n1-c1ccccc1, the AC50 [6] is reported as 3.54 µM (active).

With COc1cc(/C=C/c2noc(-c3ccccc3O)n2)ccc1OC(C)=O the AC50 [11] was 3.44 µM (active).

For O=C(Cn1c(=O)sc2ccccc21)Nc1nc2c(s1)CCCC2, the CC50 [5] was > 50 µM (active).

With CN(CCOc1ccc(CC2SC(=O)NC2=O)cc1)c1ccccn1 (stereo unspecified) [ROSIGLITAZONE MALEATE] the IC50 [1] was > 47.1 µM (inactive) and the EC50 [2] was > 53 µM (inactive).

In the case of CCN(CC)c1ccc(CN(C(=O)c2cc(OC)c(OC)c(OC)c2)C2CCS(=O)(=O)C2)cc1 (stereo unspecified), the AC50 [6] is reported as 9.07 µM (active).
